From US20050130989A1, “N-arylheteroaromatic products compositions containing them and use thereof” (Aventis Pharma S. A., priority 2003, published 2005) come the findings set out here.

One data set concerns the target T1, tubulin (Sus scrofa, UniProt P02550+P02554).
T1 construct: Tubulin is purified from pig brain according to published methods; from tissue; host or cells: pig brain
Description: Evaluation of the inhibition of tubulin polymerization (turbidimetry). It counts as biochemical, pig. Particulars: tubulin 10 μm (1 mg/ml), 37° C., turbidity at 350 nm; concentration that inhibits the rate of polymerization by 50%; read-out: Inhibition of tubulin polymerization IC 50 (μm). The gist of the method:
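Pig brain tubulin (>95% pure), 10 μm in MES pH 6.8/30% glycerol buffer plus 1 mM GTP and 6 mM MgCl2, with compound at 0.5–10 μm added before polymerization. Polymerization triggered by shift from 6° C to 37° C, followed by turbidity at 350 nm; IC50 is 50% inhibition of polymerization rate.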

The subject of a further data set is HCT116 cells. Description: Inhibition of proliferation of the human colon tumor line HCT116 ([14C]-thymidine incorporation). In kind it is cell-based. Particulars: Homo sapiens, HCT-116, 48 h, 48 hours at 37° C., read-out: Inhibition of HCT116 proliferation IC 50 (μm). The method in brief:
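HCT116 cells (5000/well) in DMEM with 10% fetal calf serum incubated 48 h at 37° C with [14C]-thymidine (0.1 μCi/well) and compound up to 10 μm (DMSO ≤0.5%). Incorporated radioactivity counted; IC50 is concentration cutting radioactivity by 50% versus untreated control.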
On the technique in general: Dividing cells build labelled thymidine or BrdU into new DNA.

Counter-ions that a name gives are not always drawn.

T1 sequence (P02550 whole entry): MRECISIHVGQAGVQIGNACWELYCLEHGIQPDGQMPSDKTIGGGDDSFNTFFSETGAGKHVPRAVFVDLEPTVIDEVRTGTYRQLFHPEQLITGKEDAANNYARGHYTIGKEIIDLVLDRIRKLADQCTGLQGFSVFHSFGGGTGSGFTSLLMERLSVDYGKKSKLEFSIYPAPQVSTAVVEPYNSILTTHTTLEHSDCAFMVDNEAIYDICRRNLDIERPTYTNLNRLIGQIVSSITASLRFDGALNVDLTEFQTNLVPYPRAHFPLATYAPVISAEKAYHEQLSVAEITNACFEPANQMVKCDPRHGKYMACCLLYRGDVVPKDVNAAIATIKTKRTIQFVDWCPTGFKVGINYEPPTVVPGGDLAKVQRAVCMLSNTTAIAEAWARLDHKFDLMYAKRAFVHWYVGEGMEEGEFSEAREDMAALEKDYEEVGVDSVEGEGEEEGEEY
T1 sequence (P02554 whole entry): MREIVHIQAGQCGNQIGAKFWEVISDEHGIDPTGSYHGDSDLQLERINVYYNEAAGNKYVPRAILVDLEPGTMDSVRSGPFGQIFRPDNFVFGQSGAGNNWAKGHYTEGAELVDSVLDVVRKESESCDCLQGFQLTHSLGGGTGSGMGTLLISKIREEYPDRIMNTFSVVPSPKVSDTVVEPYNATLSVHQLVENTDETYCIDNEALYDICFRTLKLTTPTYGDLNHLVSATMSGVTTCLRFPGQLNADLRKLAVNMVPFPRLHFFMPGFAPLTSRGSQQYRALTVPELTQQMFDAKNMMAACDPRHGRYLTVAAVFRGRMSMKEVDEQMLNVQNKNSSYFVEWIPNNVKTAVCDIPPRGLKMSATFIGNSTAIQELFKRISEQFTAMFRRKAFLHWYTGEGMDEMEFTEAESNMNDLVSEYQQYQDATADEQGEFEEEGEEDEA

One may read the melting point as the temperature, or range, at which the solid turns liquid. Molecule `COc1cc(OC)cc(N2CCN(C(=O)c3cc(C)nn3-c3cccnc3)CC2)c1` [Example E53, [4-(3,5-Dimethoxyphenyl)piperazin-1-yl][5-methyl-2-(pyrid-3-yl)-2H-pyrazol-3-yl]methanone] gave a melting point of 60 °C. Also, the IC50 on tubulin came out at 620 nM. Moreover, the IC50 in the data set with HCT116 cells was 11.1 nM.
As to `Cc1cc(C(=O)N2CCN(c3cnccn3)CC2)n(-c2ccccc2)n1` [Example E19, (5-Methyl-2-phenyl-2H-pyrazol-3-yl)(2,3,5,6-tetrahydro-[1,2′]bipyrazinyl-4-yl)-methanone], the melting point was determined as 129 °C. Besides, the IC50 on tubulin was found to be 6000 nM. In addition, the IC50 in the data set with HCT116 cells worked out at 40 nM.
The like results for `O=C(c1cc(C(F)(F)F)nn1-c1ccccc1)N1CCN(c2cccc(Cl)c2)CC1` [Example E118, [4-(3-Chlorophenyl)piperazin-1-yl](2-phenyl-5-trifluoromethyl-2H-pyrazol-3-yl)-methanone] were, in that order, 160 °C, 2300 nM and 403 nM.
Taken in the same sequence, the figures for `COc1cc(OC)cc(N2CCN(C(=O)c3cc(C(F)(F)F)nn3-c3ccccc3)CC2)c1` [Example E117, [4-(3,5-Dimethoxyphenyl)piperazin-1-yl](2-phenyl-5-trifluoromethyl-2H-pyrazol-3-yl)methanone] were 84 °C, 7900 nM and 28.4 nM.
For `O=C(c1cccn1-c1ccccc1)N1CCN(c2cccc(Cl)c2)CC1` [Example 6, [4-(3-Chlorophenyl)piperazin-1-yl](1-phenyl-1H-pyrrol-2-yl)methanone], the melting point was 105 °C. In addition, at tubulin, the IC50 was determined as 1200 nM. The IC50 in the data set with HCT116 cells is 38.2 nM.
For `Cc1cc(C(=O)N2CCN(c3cccc(C#N)c3)CC2)n(-c2ccccc2)n1` [Example E10, [4-(3-Cyanophenyl)piperazin-1-yl](5-methyl-2-phenyl-2H-pyrazol-3-yl)-methanone], the melting point was 136 °C. In addition, on tubulin, the IC50 amounted to 900 nM. Besides, the IC50 in the data set with HCT116 cells is 4.9 nM.
`Cc1cc(C(=O)N2CCN(c3cccc(Br)c3)CC2)n(-c2ccccc2)n1` [Example E6, [4-(3-Bromophenyl)piperazin-1-yl](5-methyl-2-phenyl-2H-pyrazol-3-yl)methanone]: the melting point stood at 138 °C. The IC50 on tubulin turned out to be 900 nM. In the data set on HCT116 cells, the IC50 was 1.2 nM.
The like results for `Cc1cc(C(=O)N2CCN(c3cccc(N)c3)CC2)n(-c2ccccc2)n1` [Example E9, [4-(3-Aminophenyl)piperazin-1-yl](5-methyl-2-phenyl-2H-pyrazol-3-yl)methanone] were, in that order, 158 °C, 3000 nM and 53.1 nM.
As to `NC(=O)c1cccc(N2CCN(C(=O)c3cc(C(F)(F)F)nn3-c3ccccc3)CC2)c1` [Example E119, 3-[4-(2-Phenyl-5-trifluoromethyl-2H-pyrazole-3-carbonyl)piperazin-1-yl]benzamide], the melting point was determined as 160 °C. Also, the IC50 at tubulin was found to be 1200 nM. Also, the IC50 in the data set with HCT116 cells was found to be 10.3 nM.
The molecule `O=C(c1cccn1-c1ccccc1)N1CCN(c2cccnc2)CC1` (as salt: hydrochloride) [Example E46, (1-Phenyl-1H-pyrrol-2-yl)[4-(pyrid-3-yl)piperazin-1-yl]methanone hydrochloride] had a melting point of 180 °C.
The molecule `Cc1cc(C(=O)N2CCN(c3cccc(OC(F)(F)F)c3)CC2)n(-c2ccccc2)n1` [Example E11, [4-(3-Trifluoromethyloxyphenyl)piperazin-1-yl](5-methyl-2-phenyl-2H-pyrazol-3-yl)methanone] returned a melting point of 107 °C. The IC50 at tubulin turned out to be 1000 nM. Further, the IC50 in the data set on HCT116 cells was found to be 12 nM.
Regarding `Cc1cc(C(=O)N2CCN(c3cccnc3)CC2)n(-c2cccc(F)c2)n1` [Example E58, [2-(3-Fluorophenyl)-5-methyl-2H-pyrazol-3-yl](4-pyrid-3-ylpiperazin-1-yl)methanone], the melting point stood at 132 °C. Further, the IC50 at tubulin worked out at 1000 nM. The IC50 in the data set with HCT116 cells is 41.1 nM.
Taken in the same sequence, the figures for `Cc1cc(C(=O)N2CCN(c3cccc(C(N)=O)c3)CC2)n(-c2ccccc2)n1` [Example E23, 3-[4-(5-Methyl-2-phenyl-2H-pyrazole-3-carbonyl)piperazin-1-yl]benzamide] were 186 °C, 320 nM and 10 nM.
The like results for `Cc1cc(C(=O)N2CC=C(c3ccccc3)CC2)n(-c2ccccc2)n1` [Example 4, (4-Phenyl-1,2,3,6-tetrahydropyridin-1-yl)(5-methyl-2-phenyl-2H-pyrazol-3-yl)-methanone] were, in that order, 68 °C, 3000 nM and 58.8 nM.
Molecule `Cc1cc(C(=O)N2CCN(c3cncc4ccccc34)CC2)n(-c2ccccc2)n1` [Example E41] returned a melting point of 166 °C. On tubulin, the IC50 came out at 4500 nM. Besides, the IC50 with HCT116 cells worked out at 89.4 nM.
`CC(=O)c1cccc(N2CCN(C(=O)c3cc(C)nn3-c3ccccc3)CC2)c1` [Example E107, 1-{3-[4-(5-Methyl-2-phenyl-2H-pyrazole-3-carbonyl)piperazin-1-yl]phenyl}ethanone]: the melting point was 134 °C. In addition, on tubulin, the IC50 is 1400 nM. For the same molecule, in the data set with HCT116 cells, the IC50 was 10.4 nM.
As to `Cc1cc(C(=O)N2CCN(c3ccccc3[N+](=O)[O-])CC2)n(-c2ccccc2)n1` [Example E62, (5-Methyl-2-phenyl-2H-pyrazol-3-yl)[4-(2-nitrophenyl)piperazin-1-yl]methanone], the melting point is 127 °C. The IC50 on tubulin amounted to 13500 nM.
As for `Cc1cc(C(=O)N2CCN(c3ccc4c(c3)OCO4)CC2)n(-c2ccccc2)n1` [Example E12, [4-(1,3-Benzodioxol-5-yl)piperazin-1-yl](5-methyl-2-phenyl-2H-pyrazol-3-yl)-methanone], the melting point was 128 °C. For the same molecule, the IC50 at tubulin came to 2300 nM. Further, the IC50 in the data set on HCT116 cells was found to be 3.1 nM.
Molecule `COc1cc(OC)cc(N2CCN(C(=O)c3cc(C(C)C)nn3-c3ccccc3)CC2)c1` [Example E71, [4-(3,5-Dimethoxyphenyl)piperazin-1-yl](5-isopropyl-2-phenyl-2H-pyrazol-3-yl)methanone] returned a melting point of 116 °C. Besides, the IC50 at tubulin is 3740 nM. In addition, the IC50 with HCT116 cells came to 200 nM.
For the molecule `NC(=O)c1cccc(N2CCN(C(=O)c3cc(CO)nn3-c3ccccc3)CC2)c1` [Example E134, 3-[4-(5-Hydroxymethyl-2-phenyl-2H-pyrazole-3-carbonyl)piperazin-1-yl]benzamide], the melting point came out at 216 °C. Also, the IC50 on tubulin was found to be 3200 nM.
In the case of `Cc1cc(C(=O)N2CCN(c3cc(F)c(F)c(F)c3)CC2)n(-c2ccccc2)n1` [Example E111, (5-Methyl-2-phenyl-2H-pyrazol-3-yl)[4-(3,4,5-trifluorophenyl)piperazin-1-yl]methanone], the melting point was 204 °C. Also, at tubulin, the IC50 came out at 2330 nM.
Consider `Cc1cc(C(=O)N2CCN(c3cccc(Cl)c3)CC2)n(-c2cccnc2)n1` [Example E52, [4-(3-Chlorophenyl)piperazin-1-yl][5-methyl-2-(pyrid-3-yl)-2H-pyrazol-3-yl]methanone], for which the melting point was 124 °C. On tubulin, the IC50 turned out to be 1410 nM. The IC50 with HCT116 cells was found to be 10.2 nM.
Taken in the same sequence, the figures for `CNC(=O)c1cccc(N2CCN(C(=O)c3cc(C)nn3-c3ccccc3)CC2)c1` [Example E116, N-Methyl-3-[4-(5-methyl-2-phenyl-2H-pyrazole-3-carbonyl)piperazin-1-yl]-benzamide] were 180 °C, 2070 nM and 11.3 nM.
`Cc1cc(C(=O)N2CCN(c3nccc4ccccc34)CC2)n(-c2ccccc2)n1.Cl` [Example E15, [4-(Isoquinolin-1-yl)piperazin-1-yl](5-methyl-2-phenyl-2H-pyrazol-3-yl)-methanone hydrochloride] returned a melting point of 128 °C. Also, on tubulin, the IC50 was found to be 14000 nM. Further, the IC50 in the data set on HCT116 cells was 239 nM.
Taken in the same sequence, the figures for `Cc1cc(C)cc(N2CCN(C(=O)c3cc(C)nn3-c3ccccc3)CC2)c1` [Example E63, [4-(3,5-Dimethylphenyl)piperazin-1-yl](5-methyl-2-phenyl-2H-pyrazol-3-yl)methanone] were 109 °C, 600 nM and 2.2 nM.
The molecule `Cc1cc(C(=O)N2CCN(c3cccc(C(=O)OC(C)(C)C)c3)CC2)n(-c2ccccc2)n1` [Example E27, tert-butyl 3-[4-(5-methyl-2-phenyl-2H-pyrazole-3-carbonyl)piperazin-1-yl]benzoate] displayed a melting point of 144 °C. At tubulin, the IC50 is 22500 nM.
Turning to `Cc1cc(C(=O)N2CCN(c3ccnc4ccccc34)CC2)n(-c2ccccc2)n1` [Example E17, (5-Methyl-2-phenyl-2H-pyrazol-3-yl)(4-quinolin-4-ylpiperazin-1-yl)methanone], the IC50 on tubulin amounted to 1500 nM; in the data set with HCT116 cells it was 8.5 nM.
The like results for `Cc1cc(C(=O)N2CCN(c3cccc(Cl)c3)CC2)n(-c2cccc(Cl)c2)n1` [3/34] were, in that order, 2500 nM and 526 nM.
